Results published in PMC8000084, “Peptide Dendrimers with Non-Symmetric Bola Structure Exert Long Term Effect on Glioblastoma and Neuroblastoma Cell Lines” (Biomolecules, 2021).

Legend:
[1] = Ferric reducing antioxidant power (FRAP); settings: pH 3.6, 593 nm after 15 min; Figure 6
Description: The FRAP assay was performed according to previously described method with some modifications. FRAP working solution was prepared freshly each time. The stock solution included 2.40 mL acetate buffer (300mM, pH 3.6), 0.24 mL 10 mM TPTZ solution in 40 mM HCl, and 0.24 mL of 20 mM FeCl3 × 6H2O in water. The mixture was kept away from light and warmed at 37 °C before using. Then, 240 μL sample Troloxor solvent (blank sample) standard solution was added to FRAP stock solution. The absorbance was measured at 593 nm after 15 min. Final concentration of methanolic solutions of the studied dendrimers were in range 0–24 μM and Trolox® solutions from 0 to 50 μM.All determinations were carried out in triplicate.

[2] = Cupric reducing antioxidant capacity (CUPRAC)
Description: The CUPRAC method was performed according to procedure described by Apak et al. with small modifications, which was necessary to correlate this method to other used assays. CUPRAC working solution was prepared freshly each time. The stock solution including 0.96 mL ammonium acetate buffer (1 M, pH 7), 0.96 mL 7.5 mM neocuproine solution in MeOH, and 0.96 mL of 10 mM CuCl2 in water was kept away from light. Then, 240 μL dendrimer, Trolox, or solvent (blank sample) standard solution was added to CUPRAC stock solution, and after 25 min, absorbance at 450 nm was recorded. Results were expressed as μM Trolox L^−1. All determinations were carried out in triplicate.

[3] = tested on: rat primary cerebellar granule cells (CGC); format: cell-based; settings: 5 μM, 30 min exposure in Locke 25, PI staining 24 h later; Figure 3
Description: Primary CGC cultures were prepared from seven-day-old Wistar rats of both sexes as previously described. Procedures using rat pups were performed in accordance with international standards of animal care guidelines and were approved by the Local Care of Experimental Animals Committee. The culture was incubated in growth basal Eagle’s medium (Gibco, Thermo Fisher Scientific, Grand Island, NY, USA), supplemented with 10% fetal calf serum, 25 mM KCl, 4 mM glutamine, penicillin (50 U/mL), and streptomycin ([…]) (Sigma-Aldrich, Poznan, Poland). The density of the cell suspension seeded on the 24-well plates, coated with poly-L-lysine, was 1 × 10^6 cells per well. […]
Stock solutions were prepared by dissolving dendrimers in dimethylsulfoxide (DMSO) (Sigma-Aldrich, Poznan, Poland), and subsequent dilutions were made in cell medium. The effect of the dendrimers on CGC viability was assessed 24 h after a 30 min exposure of the cultures to the tested compounds using propidium iodide (PI) staining. […] Then, the cells were fixed with 80% methanol, stained with PI (0.5 µg/mL), and viable and dead neurons were counted using an Axiovert fluorescence microscope (Carl Zeiss AG, Germany). The viability of the neurons was determined as percentages of live cells in proportion to all cells.

[4] = 5.5 μM; cited from earlier work
Description: The results of DPPH and ABTS tests for the (+)10-charged 16, 18, 20, 22, 24, and 26 bola dendrimers at three concentrations (3.78, 7.69, and 15.38 μM) are shown in Figure 5, whereas results of FRAP and CUPRAC tests are shown in Figure 6. Data include also two neutral derivatives 19 and 25 for the PABA and PAS series, respectively. Considering TEAC values, dendrimers show different level of scavenging capacity in both tests, being better scavengers of radical cations than single electron bearing neutral radicals. The highest cationic radical scavenging ability in ABTS test was found for […] ...

Nc1ccc(S(=O)(=O)O)cc1 [p-aminobenzenesulfonic acid]
redox potential / reducing capacity in FRAP test (in words) [1]: insignificant
redox potential / reducing capacity in CUPRAC test (in words) ([2]; pH 7, 450 nm after 25 min, Figure 6): insignificant

Nc1ccc(S(=O)(=O)NCCCCCOc2cc(OCCNS(=O)(=O)c3ccc(N)cc3)cc(C(=O)NCCNC(=O)[C@H](Cc3c[nH]c4ccccc34)NC(=O)[C@H](CCCCNC(=O)c3cc(OCCNC(=O)[C@@H](N)CCCCNC(=O)[C@@H](N)Cc4c[nH]c5ccccc45)cc(OCCNC(=O)[C@@H](N)CCCCNC(=O)[C@@H](N)Cc4c[nH]c5ccccc45)c3)NC(=O)c3cc(OCCNC(=O)[C@@H](N)CCCCNC(=O)[C@@H](N)Cc4c[nH]c5ccccc45)cc(OCCNC(=O)[C@@H](N)CCCCNC(=O)[C@@H](N)Cc4c[nH]c5ccccc45)c3)c2)cc1 [compound 26]
viable CGC cells conserved [3]: 55–85%
enhancement of antioxidant power in transition between FRAP/CUPRAC model ([2]; 3.78 and 7.69 μM): ~11 fold

O=C(O)/C=C/c1ccc(O)c(O)c1 [caffeic acid]
Trolox equivalence in DPPH test [4]: 6–7
